Calls of active or inactive are those of the source.
Columns and labels:
[1] = test system: HEK293; test: SAR Analysis of small molecule inhibitors of B-cell specific antigen receptor-induced NF-kB activation in a HEK-293T cell line using a luminescence assay - Set 2. [Related pubchem assays (depositor defined):AID435022, AID435025, AID489021]; format: functional, cell-based; settings: Homo sapiens
[2] = test system: HEK293; test: cytotoxicity in HEK293T NF-kB-Luc cells, SAR follow-up, cytotoxicity control for NF-kB activator project, cell-based, resazurin fluorescence (AID 493251); format: functional; settings: Homo sapiens
[3] = test system: Jurkat; test: SAR Analysis of small molecule inhibitors of […] specific antigen receptor-induced NF-kB activation in a Jurkat cell line using a luminescence assay - Set 3. [Related pubchem assays (depositor defined):AID435022, AID435025, AID465]; format: functional, cell-based; settings: Homo sapiens
[4] = biological target: Beta-adrenergic receptor kinase 1 (Homo sapiens, UniProt P25098); test: GRK2 inhibitors displacing RNA aptamer, dose response, biochemical, flow cytometry beads, FAM-aptamer, powder set 1 (AID 588720)
Beta-adrenergic receptor kinase 1, sequence (P25098 whole entry): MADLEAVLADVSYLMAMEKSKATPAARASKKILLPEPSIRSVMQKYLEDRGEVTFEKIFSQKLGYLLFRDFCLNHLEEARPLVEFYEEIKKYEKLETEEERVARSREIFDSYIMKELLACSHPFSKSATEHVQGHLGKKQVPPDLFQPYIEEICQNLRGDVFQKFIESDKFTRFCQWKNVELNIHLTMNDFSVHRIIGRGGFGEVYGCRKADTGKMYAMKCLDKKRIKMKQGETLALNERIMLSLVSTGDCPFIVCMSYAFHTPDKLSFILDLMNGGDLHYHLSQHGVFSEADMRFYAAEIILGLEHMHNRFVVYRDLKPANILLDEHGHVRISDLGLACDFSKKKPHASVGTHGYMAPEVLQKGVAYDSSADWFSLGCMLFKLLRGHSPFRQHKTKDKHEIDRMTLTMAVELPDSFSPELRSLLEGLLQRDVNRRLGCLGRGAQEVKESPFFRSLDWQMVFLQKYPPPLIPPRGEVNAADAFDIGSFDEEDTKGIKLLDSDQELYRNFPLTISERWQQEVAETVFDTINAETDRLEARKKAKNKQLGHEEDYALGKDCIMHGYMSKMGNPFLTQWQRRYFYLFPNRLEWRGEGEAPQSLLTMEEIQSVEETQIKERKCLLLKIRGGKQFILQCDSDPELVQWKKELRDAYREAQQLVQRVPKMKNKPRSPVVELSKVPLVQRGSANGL

[5] = biological target: T1, Apoptotic protease-activating factor 1 (Homo sapiens, UniProt O14727); test: activation of Apaf-1 mediated apoptosis – fluorescent, uHTS hits, dose response (AID 588554); format: functional
T1 sequence (O14727 whole entry): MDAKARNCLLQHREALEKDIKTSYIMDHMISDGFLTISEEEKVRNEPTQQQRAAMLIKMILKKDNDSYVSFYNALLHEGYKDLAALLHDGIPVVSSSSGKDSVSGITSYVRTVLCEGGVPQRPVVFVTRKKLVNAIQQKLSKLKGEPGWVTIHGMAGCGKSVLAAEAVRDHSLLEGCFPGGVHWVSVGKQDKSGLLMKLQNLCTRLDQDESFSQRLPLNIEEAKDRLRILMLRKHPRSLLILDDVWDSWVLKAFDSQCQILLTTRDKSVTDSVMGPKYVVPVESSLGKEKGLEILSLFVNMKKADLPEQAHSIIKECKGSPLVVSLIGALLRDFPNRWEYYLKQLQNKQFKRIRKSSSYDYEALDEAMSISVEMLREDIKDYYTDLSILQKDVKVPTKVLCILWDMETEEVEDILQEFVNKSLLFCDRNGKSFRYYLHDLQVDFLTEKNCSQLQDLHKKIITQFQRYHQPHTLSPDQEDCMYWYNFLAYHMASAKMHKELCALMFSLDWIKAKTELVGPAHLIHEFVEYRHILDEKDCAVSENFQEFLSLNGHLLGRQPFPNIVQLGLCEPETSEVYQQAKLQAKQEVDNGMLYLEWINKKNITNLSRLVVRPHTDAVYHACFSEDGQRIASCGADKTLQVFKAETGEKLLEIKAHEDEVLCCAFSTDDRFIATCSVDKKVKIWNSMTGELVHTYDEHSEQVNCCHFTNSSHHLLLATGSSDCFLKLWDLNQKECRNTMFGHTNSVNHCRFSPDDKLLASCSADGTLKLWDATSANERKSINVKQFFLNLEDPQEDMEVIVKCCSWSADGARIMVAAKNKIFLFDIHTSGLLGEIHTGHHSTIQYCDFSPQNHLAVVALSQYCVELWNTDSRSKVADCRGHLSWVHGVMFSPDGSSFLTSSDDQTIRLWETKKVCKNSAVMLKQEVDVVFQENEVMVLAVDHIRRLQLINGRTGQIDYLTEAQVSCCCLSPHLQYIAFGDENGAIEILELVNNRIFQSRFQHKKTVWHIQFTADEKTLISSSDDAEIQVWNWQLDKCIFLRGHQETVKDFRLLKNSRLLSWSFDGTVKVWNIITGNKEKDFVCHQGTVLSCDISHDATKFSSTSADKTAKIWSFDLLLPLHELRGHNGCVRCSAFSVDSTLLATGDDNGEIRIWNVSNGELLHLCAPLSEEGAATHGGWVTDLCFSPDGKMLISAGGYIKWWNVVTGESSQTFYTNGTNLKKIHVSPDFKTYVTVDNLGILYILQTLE

[6] = biological target: T2, Small ubiquitin-related modifier 1 (Homo sapiens, UniProt P63165); test: inhibitors of SUMO1 partner interactions, dose response, biochemical, FRET (AID 624383); format: functional; settings: read-out: IC50_Mean
T2 sequence (P63165 whole entry, the tested form may be a part): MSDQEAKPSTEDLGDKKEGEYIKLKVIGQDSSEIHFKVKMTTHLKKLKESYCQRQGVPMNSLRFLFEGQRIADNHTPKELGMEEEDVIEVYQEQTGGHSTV

[7] = biological target: T3, Carboxy-terminal domain RNA polymerase II polypeptide A small phosphatase 1 (Homo sapiens, UniProt Q9GZU7); test: inhibitors of CTDSP1, concentration-response testing, biochemical assay, absorbance-based, actives from ultra-high-throughput screening (AID 540297); format: functional
T3 sequence (Q9GZU7 whole entry): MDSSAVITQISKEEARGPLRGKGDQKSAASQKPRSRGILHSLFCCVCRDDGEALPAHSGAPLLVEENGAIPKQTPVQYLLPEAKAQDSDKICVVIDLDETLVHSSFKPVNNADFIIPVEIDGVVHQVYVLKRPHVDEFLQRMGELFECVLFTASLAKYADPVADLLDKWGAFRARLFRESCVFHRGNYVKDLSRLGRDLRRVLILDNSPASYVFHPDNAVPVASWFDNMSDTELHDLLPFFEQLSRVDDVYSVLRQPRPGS

[8] = biological target: T2, Small ubiquitin-related modifier 1; test: inhibitors of SUMO1 peptide binding, dose response, biochemical, fluorescence polarization, uHTS hits (AID 624382); format: functional; settings: read-out: IC50_Mean
[9] = biological target: Dual specificity protein phosphatase 3 (Homo sapiens, UniProt P51452); test: SAR VHR1 Fluorescent Assay for In Vitro dose response studies Set 2. [Related pubchem assays (depositor defined):AID1654, AID1661, AID1878]; format: functional
Dual specificity protein phosphatase 3, sequence (P51452 whole entry): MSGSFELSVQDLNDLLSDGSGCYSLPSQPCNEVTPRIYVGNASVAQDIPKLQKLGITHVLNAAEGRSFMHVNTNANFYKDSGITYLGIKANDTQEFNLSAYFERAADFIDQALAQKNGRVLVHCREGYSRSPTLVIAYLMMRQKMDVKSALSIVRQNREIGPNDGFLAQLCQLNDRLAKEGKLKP

[10] = biological target: T4, SUMO-activating enzyme (Homo sapiens, UniProt Q9UBT2); test: inhibitors of in vitro SUMOylation cascade, primary screen, biochemical, HTRF, uHTS (AID 2006); format: protein-complex assay
T4 sequence (Q9UBE0 whole entry): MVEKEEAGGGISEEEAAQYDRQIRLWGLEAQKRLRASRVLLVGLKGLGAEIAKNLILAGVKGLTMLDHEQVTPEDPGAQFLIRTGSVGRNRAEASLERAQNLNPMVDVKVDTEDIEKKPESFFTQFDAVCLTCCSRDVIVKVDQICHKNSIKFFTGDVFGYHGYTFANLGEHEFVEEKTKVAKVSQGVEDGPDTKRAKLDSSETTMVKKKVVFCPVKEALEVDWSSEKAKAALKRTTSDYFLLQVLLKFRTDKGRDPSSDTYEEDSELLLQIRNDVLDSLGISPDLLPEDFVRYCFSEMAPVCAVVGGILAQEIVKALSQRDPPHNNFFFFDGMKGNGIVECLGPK
T4 sequence (Q9UBT2 whole entry): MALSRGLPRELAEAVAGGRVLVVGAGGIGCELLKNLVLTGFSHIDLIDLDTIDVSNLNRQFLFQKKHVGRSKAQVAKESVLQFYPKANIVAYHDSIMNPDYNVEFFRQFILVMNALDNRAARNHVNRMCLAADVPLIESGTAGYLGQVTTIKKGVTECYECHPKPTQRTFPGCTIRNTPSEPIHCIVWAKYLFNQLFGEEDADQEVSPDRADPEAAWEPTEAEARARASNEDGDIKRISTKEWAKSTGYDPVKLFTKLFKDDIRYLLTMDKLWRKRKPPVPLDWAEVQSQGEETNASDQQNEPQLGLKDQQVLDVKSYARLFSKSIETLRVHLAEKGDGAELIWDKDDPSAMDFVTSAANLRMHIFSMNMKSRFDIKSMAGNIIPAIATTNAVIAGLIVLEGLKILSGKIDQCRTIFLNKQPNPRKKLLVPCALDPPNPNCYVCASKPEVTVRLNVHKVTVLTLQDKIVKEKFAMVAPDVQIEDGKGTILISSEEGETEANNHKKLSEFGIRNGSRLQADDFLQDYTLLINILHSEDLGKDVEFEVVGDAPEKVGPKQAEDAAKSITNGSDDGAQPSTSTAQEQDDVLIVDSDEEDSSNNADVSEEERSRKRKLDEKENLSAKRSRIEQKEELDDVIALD

[11] = biological target: T5, Tyrosine-protein phosphatase non-receptor type 22 (Homo sapiens, UniProt Q9Y2R2); test: SAR LYP1 Fluorescent Assay using OMFP substrate for In Vitro dose response studies - Set 3. [Related pubchem assays (depositor defined):AID1779, AID1784, AID2140, AID2686]; format: functional
T5 sequence (Q9Y2R2 whole entry): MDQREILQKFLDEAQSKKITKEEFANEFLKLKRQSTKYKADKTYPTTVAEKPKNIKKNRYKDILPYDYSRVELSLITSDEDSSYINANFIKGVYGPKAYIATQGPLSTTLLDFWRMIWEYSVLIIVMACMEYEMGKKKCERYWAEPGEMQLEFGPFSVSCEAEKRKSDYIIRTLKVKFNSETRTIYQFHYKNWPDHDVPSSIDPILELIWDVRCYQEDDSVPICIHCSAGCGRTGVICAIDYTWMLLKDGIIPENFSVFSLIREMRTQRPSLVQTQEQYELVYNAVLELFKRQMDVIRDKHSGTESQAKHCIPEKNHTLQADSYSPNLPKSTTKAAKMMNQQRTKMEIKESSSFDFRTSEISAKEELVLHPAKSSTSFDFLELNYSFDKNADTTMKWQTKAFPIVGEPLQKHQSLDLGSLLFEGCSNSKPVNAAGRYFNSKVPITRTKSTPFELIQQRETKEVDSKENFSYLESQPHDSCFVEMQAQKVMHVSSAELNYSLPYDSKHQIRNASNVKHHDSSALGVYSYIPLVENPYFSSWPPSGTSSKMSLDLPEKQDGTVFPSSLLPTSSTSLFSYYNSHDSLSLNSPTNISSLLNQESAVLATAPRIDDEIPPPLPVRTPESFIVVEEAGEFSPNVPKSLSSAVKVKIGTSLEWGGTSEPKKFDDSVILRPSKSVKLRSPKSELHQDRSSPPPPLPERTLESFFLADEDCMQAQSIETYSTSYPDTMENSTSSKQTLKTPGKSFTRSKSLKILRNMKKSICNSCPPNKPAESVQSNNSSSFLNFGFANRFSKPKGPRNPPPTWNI

[12] = biological target: T6, Tyrosine-protein phosphatase non-receptor type 7 (Homo sapiens, UniProt P35236); test: HePTP (PTPN7) phosphatase inhibitor potency, SAR follow-up, biochemical, set 2 (AID 449736); format: functional
T6 sequence (P35236 whole entry): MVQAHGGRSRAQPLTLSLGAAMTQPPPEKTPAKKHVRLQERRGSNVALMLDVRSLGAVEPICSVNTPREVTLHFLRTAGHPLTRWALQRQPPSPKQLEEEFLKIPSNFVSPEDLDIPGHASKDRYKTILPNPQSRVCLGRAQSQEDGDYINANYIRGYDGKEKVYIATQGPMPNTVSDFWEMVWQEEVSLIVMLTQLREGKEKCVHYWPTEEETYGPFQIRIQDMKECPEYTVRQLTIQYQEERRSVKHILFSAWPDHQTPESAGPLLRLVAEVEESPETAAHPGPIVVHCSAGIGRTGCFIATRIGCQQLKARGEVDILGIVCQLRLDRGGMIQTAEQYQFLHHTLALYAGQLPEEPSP

[13] = biological target: T4, SUMO-activating enzyme; test: SUMOylation inhibitor hit validation, confirmation, SUMOylation inhibitor project, biochemical, AlphaScreen (AID 2018); format: functional
[14] = biological target: Dual specificity protein phosphatase 6 (Rattus norvegicus, UniProt Q64346); format: functional;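 further: confirmatory in vitro dose-response testing of MKP-3 inhibition; recombinant His-tagged MKP-3 made in E. coli BL21 with OMFP substrate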
Dual specificity protein phosphatase 6, sequence (Q64346 whole entry): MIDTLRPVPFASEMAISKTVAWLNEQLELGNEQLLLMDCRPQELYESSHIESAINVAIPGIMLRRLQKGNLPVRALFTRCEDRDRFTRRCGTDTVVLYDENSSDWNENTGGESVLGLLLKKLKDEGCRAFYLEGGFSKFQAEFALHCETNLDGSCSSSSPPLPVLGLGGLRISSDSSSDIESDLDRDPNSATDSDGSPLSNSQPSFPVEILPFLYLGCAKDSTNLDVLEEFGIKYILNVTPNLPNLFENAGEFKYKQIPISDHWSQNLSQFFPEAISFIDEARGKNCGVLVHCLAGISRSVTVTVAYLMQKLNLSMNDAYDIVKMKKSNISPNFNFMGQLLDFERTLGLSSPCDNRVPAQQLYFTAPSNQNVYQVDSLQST

[15] = biological target: T7, Tyrosine-protein phosphatase non-receptor type 12 (Homo sapiens, UniProt Q05209); test: SAR Selectivity Analysis of small molecule inhibitors of PEST using pCAP in a fluorescence assay. [Related pubchem assays (depositor defined):AID1779, AID1784, AID2135]; format: functional
T7 sequence (Q05209 whole entry): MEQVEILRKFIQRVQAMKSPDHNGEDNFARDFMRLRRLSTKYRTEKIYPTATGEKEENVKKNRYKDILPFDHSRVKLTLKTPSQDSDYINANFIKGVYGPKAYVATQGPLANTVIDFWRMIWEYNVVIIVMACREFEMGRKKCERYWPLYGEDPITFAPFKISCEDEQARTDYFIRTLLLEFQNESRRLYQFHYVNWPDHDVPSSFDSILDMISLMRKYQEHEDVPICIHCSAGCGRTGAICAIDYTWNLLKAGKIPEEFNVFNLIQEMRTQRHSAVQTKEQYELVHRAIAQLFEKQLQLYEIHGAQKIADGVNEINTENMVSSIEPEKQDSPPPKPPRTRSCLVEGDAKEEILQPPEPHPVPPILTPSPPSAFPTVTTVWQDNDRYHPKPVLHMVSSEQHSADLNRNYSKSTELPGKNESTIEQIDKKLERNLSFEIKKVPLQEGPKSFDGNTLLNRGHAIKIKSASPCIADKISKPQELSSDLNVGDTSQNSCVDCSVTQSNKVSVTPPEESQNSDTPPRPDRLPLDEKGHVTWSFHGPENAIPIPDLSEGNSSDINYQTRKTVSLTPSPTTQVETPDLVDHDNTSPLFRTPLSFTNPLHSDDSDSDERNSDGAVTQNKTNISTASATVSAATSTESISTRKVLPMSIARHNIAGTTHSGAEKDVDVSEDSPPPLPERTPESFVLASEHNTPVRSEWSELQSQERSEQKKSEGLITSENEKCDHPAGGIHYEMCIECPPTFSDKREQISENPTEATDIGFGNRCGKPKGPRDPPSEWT

[16] = biological target: Arf-GAP with SH3 domain, ANK repeat and PH domain-containing protein 1 (Homo sapiens, UniProt Q9ULH1); format: functional;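 further: biochemical fluorescence polarization dose–response screen measuring inhibition of ASAP1; ASAP1 GAP domain stimulating GTP hydrolysis by truncated human ARF1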
Arf-GAP with SH3 domain, ANK repeat and PH domain-containing protein 1, sequence (Q9ULH1 whole entry, the tested form may be a part): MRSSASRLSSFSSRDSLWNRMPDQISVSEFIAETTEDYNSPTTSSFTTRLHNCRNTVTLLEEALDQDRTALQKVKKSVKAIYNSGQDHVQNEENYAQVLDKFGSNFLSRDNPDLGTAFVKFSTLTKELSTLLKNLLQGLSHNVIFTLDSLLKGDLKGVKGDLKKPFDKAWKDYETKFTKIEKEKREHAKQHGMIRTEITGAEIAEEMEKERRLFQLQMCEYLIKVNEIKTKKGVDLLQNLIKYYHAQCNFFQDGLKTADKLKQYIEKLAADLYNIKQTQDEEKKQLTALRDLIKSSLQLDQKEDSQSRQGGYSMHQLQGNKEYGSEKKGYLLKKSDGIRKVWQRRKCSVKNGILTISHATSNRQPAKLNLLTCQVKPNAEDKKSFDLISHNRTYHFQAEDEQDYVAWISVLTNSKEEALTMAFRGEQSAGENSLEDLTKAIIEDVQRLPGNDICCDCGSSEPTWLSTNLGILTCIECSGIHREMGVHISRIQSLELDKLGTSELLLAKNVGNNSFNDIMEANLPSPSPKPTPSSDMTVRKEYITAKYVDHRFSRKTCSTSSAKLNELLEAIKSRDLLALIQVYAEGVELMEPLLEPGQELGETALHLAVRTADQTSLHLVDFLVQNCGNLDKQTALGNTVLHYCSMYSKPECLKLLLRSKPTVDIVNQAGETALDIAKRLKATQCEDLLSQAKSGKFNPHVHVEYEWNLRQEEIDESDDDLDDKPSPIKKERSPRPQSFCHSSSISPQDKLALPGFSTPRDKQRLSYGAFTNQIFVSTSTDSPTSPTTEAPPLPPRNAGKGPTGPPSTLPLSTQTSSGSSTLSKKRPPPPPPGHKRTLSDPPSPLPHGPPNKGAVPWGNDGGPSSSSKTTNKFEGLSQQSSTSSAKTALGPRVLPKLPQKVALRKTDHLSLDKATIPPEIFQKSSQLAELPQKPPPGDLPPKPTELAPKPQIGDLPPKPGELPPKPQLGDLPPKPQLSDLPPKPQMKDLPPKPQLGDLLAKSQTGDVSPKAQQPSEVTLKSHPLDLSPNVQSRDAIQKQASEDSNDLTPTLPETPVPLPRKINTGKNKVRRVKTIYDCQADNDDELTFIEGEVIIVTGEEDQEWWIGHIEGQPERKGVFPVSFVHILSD

[17] = biological target: T5, Tyrosine-protein phosphatase non-receptor type 22; test: LYP (PTPN22) phosphatase inhibitor potency, SAR follow-up, biochemical, pCAP fluorogenic substrate, fluorescence, set 3 (AID 449727); format: functional
[18] = biological target: T6, Tyrosine-protein phosphatase non-receptor type 7; test: redox-dependent HePTP inhibition, mechanism study, biochemical, fluorescence (AID 2068); format: functional

Row | SMILES | IC50 [1] | IC50 [2] | IC50 [3] | EC50 [4] | EC50 [5] | IC50 [6] | IC50 [7] | IC50 [8] | IC50 [9] | IC50 [10] | IC50 [11] | IC50 [12] | IC50 [13] | IC50 [14] | IC50 [15] | IC50 [16] | IC50 [17] | IC50 [18]
1 | CCOc1ccc(-c2noc(CCC(=O)NC)n2)cc1 | > 80 µM (inactive) | > 80 µM (inactive) | > 80 µM (inactive) | – | – | – | – | – | – | – | – | – | – | – | – | – | – | –
2 | CCOc1ccccc1NC(=O)CCS(=O)(=O)c1ccc(Br)cc1 | – | – | – | 0.337 µM (active) | 11.6 µM (active) | 6.76 µM (active) | 4.09 µM (active) | > 66.6 µM (inactive) | – | – | – | – | – | – | – | – | – | –
3 | Cc1ccc(NC(=O)CN2C(=O)S/C(=C\c3cc(Cl)c(OCC(=O)O)c(Cl)c3)C2=O)cc1 | – | – | – | – | – | – | 2.5 µM (active) | – | 3.55 µM (active) | 13.5 µM (active) | 3.95 µM (active) | 0.596 µM (active) | 8.11 µM (active) | 17.8 µM (active) | 2.79 µM (active) | 6.61 µM (active) | 4.09 µM (active) | 0.819 µM (active)

Reference: ChEMBL document CHEMBL1201862, “PubChem BioAssay data set” (2004)
